Source: patent US11660293B2, “Substituted 2-azabicyclo[3.1.1]heptane and 2-azabicyclo[3.2.1]octane derivatives as orexin receptor antagonists” (Chronos Therapeutics Limited, priority 2017, dated 2023)

Key:
[1] = target: human Orexin type 1 receptors (Homo sapiens (Human), UniProt O43613); experiment: Scintillation Proximity Assay (SPA) binding assay, [3H]SB-674042 displacement, CHO-hOX1 membranes
Procedure: Scintillation Proximity Assay (SPA) Binding Assays CHO cells stably transfected with human Orexin type 1 receptors (CHO-hOX1) or HEK-293 cells transiently transfected with human Orexin type 2 receptors (HEK-hOX2) were collected after 16 h induction with 5 mM sodium butyrate. […] The binding was performed in a final volume of 200 μl. 100 μl of hOX1 or hOX2 beads-membranes suspension were added to 100 μl of [^3H]SB-674042 or [^3H]EMPA solutions (radioligand concentration 2 nM final in the assay), into the 96-well Isoplates containing the 2 μl/well of compounds to be tested. Nonspecific binding was measured in the presence of 1 μM Almorexant. Assay plates were then incubated at room temperature for 3 h before being counted in a Microbeta scintillation counter (PerkinElmer). Data were analysed by non-linear regression analysis using XLfit Software.

[2] = target: human Orexin type 2 receptors (Homo sapiens (Human), UniProt O43614); experiment: Scintillation Proximity Assay (SPA) binding assay, [3H]EMPA displacement, HEK-hOX2 membranes
Procedure: Scintillation Proximity Assay (SPA) Binding Assays
CHO cells stably transfected with human Orexin type 1 receptors (CHO-hOX1) or HEK-293 cells transiently transfected with human Orexin type 2 receptors (HEK-hOX2) were collected after 16 h induction with 5 mM sodium butyrate. The cell pellets were re-suspended, homogenized in 15 mM Tris/HCl pH=7.5, 1 mM EGTA, 0.3 mM EDTA, 2 mM MgCl2, protease inhibitors and centrifuged at 40,000 g (20 min, 4° C.). After re-suspension, homogenization and centrifugation as above, the final pellets were re-suspended in 75 mM Tris/HCl pH=7.5, 1 mM EGTA, 0.3 mM EDTA, 12.5 mM MgCl2, 250 mM Sucrose, protease inhibitors, divided into aliquots and frozen down at −80° C.
CHO-hOX1 cell membranes (6 μg ml^−1) or HEK-hOX2 membranes (8 μg ml^−1) were pre-coupled with 1.0 mg ml^−1 of Wheatgerm Agglutinin-coated Yttrium Silicate (YSi-WGA) SPA beads (Perkin Elmer) in buffer containing 25 mM HEPES pH=7.4, 1 mM CaCl2), 5 mM MgCl2, 0.01% (w/v) BSA, 0.02% (w/v) Pluronic F-127 by shaking at room temperature for 2.5-3 h.
The binding was performed in a final volume of 200 μl. 100 μl of hOX1 or hOX2 beads-membranes suspension were added to 100 μl of [^3H]SB-674042 or [^3H]EMPA solutions (radioligand concentration 2 nM final in the assay), into the 96-well Isoplates containing the 2 μl/well of compounds to be tested. Nonspecific binding was measured in the presence of 1 μM Almorexant. Assay plates were then incubated at room temperature for 3 h before being counted in a Microbeta scintillation counter (PerkinElmer).
Data were analysed by non-linear regression analysis using XLfit Software.

Sequence of human Orexin type 1 receptors (O43613 whole entry): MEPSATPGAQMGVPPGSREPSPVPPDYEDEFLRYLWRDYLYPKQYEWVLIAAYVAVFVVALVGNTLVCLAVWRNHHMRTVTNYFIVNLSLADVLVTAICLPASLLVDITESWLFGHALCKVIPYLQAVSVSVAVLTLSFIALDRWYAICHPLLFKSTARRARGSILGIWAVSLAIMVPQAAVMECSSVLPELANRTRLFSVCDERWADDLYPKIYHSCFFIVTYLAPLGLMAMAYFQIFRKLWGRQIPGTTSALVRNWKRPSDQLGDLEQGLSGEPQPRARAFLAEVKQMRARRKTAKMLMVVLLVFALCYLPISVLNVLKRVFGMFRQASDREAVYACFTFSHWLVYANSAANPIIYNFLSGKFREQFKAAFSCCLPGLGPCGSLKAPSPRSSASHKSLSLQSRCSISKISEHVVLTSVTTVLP
Sequence of human Orexin type 2 receptors (O43614 whole entry): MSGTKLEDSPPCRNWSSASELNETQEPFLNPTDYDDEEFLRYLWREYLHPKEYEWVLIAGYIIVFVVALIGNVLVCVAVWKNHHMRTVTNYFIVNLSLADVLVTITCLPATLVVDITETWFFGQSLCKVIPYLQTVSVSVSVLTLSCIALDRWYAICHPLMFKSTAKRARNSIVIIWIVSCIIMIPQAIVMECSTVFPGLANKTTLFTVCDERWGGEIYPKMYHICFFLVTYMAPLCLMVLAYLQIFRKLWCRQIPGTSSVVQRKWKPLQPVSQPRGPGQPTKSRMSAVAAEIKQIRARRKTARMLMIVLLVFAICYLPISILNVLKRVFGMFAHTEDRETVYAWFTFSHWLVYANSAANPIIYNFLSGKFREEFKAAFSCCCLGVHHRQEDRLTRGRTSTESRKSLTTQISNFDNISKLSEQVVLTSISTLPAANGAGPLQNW

COc1nc(C(=O)N2C(COc3ccc(F)cc3)CC3CC2C3)c(-c2ccccc2)s1 (stereo not drawn) [Example 52]
OX1 pKi (SPA binding) ([1]; Table 1, [3H]SB-674042 2 nM): 7.71 | OX2 pKi (SPA binding) ([2]; Table 1, [3H]EMPA 2 nM): 6.79

Cc1ccc(-c2sc(C)nc2C(=O)N2C3CC(C3)[C@@H](C)C2COc2ccc(F)cc2)cn1 (stereo partly drawn) [Example 143, cis-3-[(4-fluorophenoxy)methyl]-4-methyl-2-[2-methyl-5-(6-methylpyridin-3-yl)-1,3-thiazole-4-carbonyl]-2-azabicylco[3.1.1]heptane]
OX1 pKi (SPA binding) ([1]; Table 2, [3H]SB-674042 2 nM): 7.14 | OX2 pKi (SPA binding) ([2]; Table 2, [3H]EMPA 2 nM): 5.93

Cc1ccc(-n2nccn2)c(C(=O)N2C3CC(C3)[C@@H](C)C2CNc2ccc(C(F)(F)F)cn2)n1 (mixture of isomers) [Example 181, cis-N-({4-methyl-2-[6-methyl-3-(2H-1,2,3-triazol-2-yl)pyridine-2-carbonyl]-2-azabicyclo[3.1.1]heptan-3-yl}methyl)-5-(trifluoromethyl)pyridin-2-amine]
OX1 pKi (SPA binding) ([1]; Table 2, [3H]SB-674042 2 nM): 8.09 | OX2 pKi (SPA binding) ([2]; Table 2, [3H]EMPA 2 nM): 5.09

Cc1ccc(-c2ncccn2)c(C(=O)N2C3CC(C3)[C@@H](C)C2CNc2cnc(C(F)(F)F)cn2)n1 (single isomer, unassigned) [Example 250, N-{[(3R,4S) or (3S,4R)-4-methyl-2-[6-methyl-3-(pyrimidin-2-yl)pyridine-2-carbonyl]-2-azabicyclo[3.1.1]heptan-3-yl]methyl}-5-(trifluoromethyl)pyrazin-2-amine]
OX1 pKi (SPA binding) ([1]; Table 2, [3H]SB-674042 2 nM): 7.9 | OX2 pKi (SPA binding) ([2]; Table 2, [3H]EMPA 2 nM): 4.85

Cc1nc(C(=O)N2C(COc3ccc(F)c(F)c3)CC3CC2C3)c(-c2ccccc2)s1 (stereo not drawn) [Example 47]
OX1 pKi (SPA binding) ([1]; Table 1, [3H]SB-674042 2 nM): 7.61 | OX2 pKi (SPA binding) ([2]; Table 1, [3H]EMPA 2 nM): 6.91

O=C(c1nc(C2CC2)sc1-c1ccccc1)N1C(COc2ccc(F)cc2)CC2CC1C2 (stereo not drawn) [Example 53]
OX1 pKi (SPA binding) ([1]; Table 1, [3H]SB-674042 2 nM): 7.58 | OX2 pKi (SPA binding) ([2]; Table 1, [3H]EMPA 2 nM): 7.13

Cc1ccc(-n2nccn2)c(C(=O)N2C3CC(C3)[C@H](C)C2CNc2ccc(Cl)cn2)n1 (mixture of isomers) [Example 148, trans-5-chloro-N-({4-methyl-2-[6-methyl-3-(2H-1,2,3-triazol-2-yl)pyridine-2-carbonyl]-2-azabicyclo[3.1.1]heptan-3-yl}methyl)pyridin-2-amine]
OX1 pKi (SPA binding) ([1]; Table 2, [3H]SB-674042 2 nM): 6.85 | OX2 pKi (SPA binding) ([2]; Table 2, [3H]EMPA 2 nM): 5.62

C[C@@H]1C2CC(C2)N(C(=O)c2nn(C)cc2-c2ccccc2)C1CNc1ccc(C(F)(F)F)cn1 (mixture of isomers) [Example 210, cis-N-{[4-methyl-2-(1-methyl-4-phenyl-1H-pyrazole-3-carbonyl)-2-azabicyclo[3.1.1]heptan-3-yl]methyl}-5-(trifluoromethyl)pyridin-2-amine]
OX1 pKi (SPA binding) ([1]; Table 2, [3H]SB-674042 2 nM): 8.69 | OX2 pKi (SPA binding) ([2]; Table 2, [3H]EMPA 2 nM): 5.84

C[C@@H]1C2CC(C2)N(C(=O)c2nn(C)cc2-c2ccccc2)C1CNc1ccc(C(F)(F)F)cn1 (single isomer, unassigned) [Example 211, N-{[(3S,4R) or (3R,4R)-4-methyl-2-(1-methyl-4-phenyl-1H-pyrazole-3-carbonyl)-2-azabicyclo[3.1.1]heptan-3-yl]methyl}-5-(trifluoromethyl)pyridin-2-amine]
OX1 pKi (SPA binding) ([1]; Table 2, [3H]SB-674042 2 nM): 8.91 | OX2 pKi (SPA binding) ([2]; Table 2, [3H]EMPA 2 nM): 6.25

Cc1ccc(-n2nccn2)c(C(=O)N2C3CC(C3)[C@@H](C)C2CNc2nc3cc(F)ccc3s2)n1 (mixture of isomers) [Example 157, cis-5-fluoro-N-({4-methyl-2-[6-methyl-3-(2H-1,2,3-triazol-2-yl)pyridine-2-carbonyl]-2-azabicyclo[3.1.1]heptan-3-yl}methyl)-1,3-benzothiazol-2-amine]
OX1 pKi (SPA binding) ([1]; Table 2, [3H]SB-674042 2 nM): 7.84 | OX2 pKi (SPA binding) ([2]; Table 2, [3H]EMPA 2 nM): 5.63

O=C(c1nc(Cl)sc1-c1ccccc1)N1C(COc2ccc(F)cc2)CC2CC1C2 (stereo not drawn) [Example 51]
OX1 pKi (SPA binding) ([1]; Table 1, [3H]SB-674042 2 nM): 7.22
